Assay results as given in PubChem BioAssay (NCI).
Where “and” joins values, the source holds several entries; their conditions need not be identical. Identical values can stand only once.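 96-well plates; 48 h exposure; 5 concentrations. Endpoints by linear interpolation between flanking doses. Not reached: highest tested concentration assigned. At the GI50, growth is halved. TGI: total growth inhibition.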

Key:
Test in all cases: NCI-60 cell line screen, 48 h
[1] = tested on: NCI-H226 lung
[2] = tested on: OVCAR-8 ovarian
[3] = tested on: UACC-62 melanoma
[4] = tested on: HCT-15 colon
[5] = tested on: HCT-116 colon
[6] = tested on: OVCAR-3 ovarian
[7] = tested on: SK-MEL-28 melanoma
[8] = tested on: HS 578T breast
[9] = tested on: SK-MEL-2 melanoma
[10] = tested on: CCRF-CEM leukemia

SMILES | GI50 [1] | TGI [1] | GI50 [2] | TGI [2] | GI50 [3] | TGI [3] | GI50 [4] | TGI [4] | GI50 [5] | TGI [5] | GI50 [6] | TGI [6] | GI50 [7] | TGI [7] | GI50 [8] | TGI [8] | TGI [9] | TGI [10] | GI50 [10] | GI50 [9]
O=C(NC1CCN(Cc2ccccc2)CC1)c1cc(-c2cccnc2)nc2ccc(Cl)cc12 | 9.72 µM | 50.3 µM | 10.4 µM | 35.4 µM | 17.4 µM | > 100 µM | 4.57 µM | 30.5 µM | 5.47 µM | 26.4 µM | 11.3 µM | 28 µM | 16.3 µM | > 100 µM | 9.9 µM | 39.4 µM | – | – | – | –
COC(=O)c1cc(-c2ccc3ccccc3c2)[nH]c(=O)c1C#N | – | > 100 µM | – | > 100 µM | – | > 100 µM | – | > 100 µM | – | > 100 µM | – | > 100 µM | – | > 100 µM | – | > 100 µM | > 100 µM | – | – | –
CC(=O)OCCOCn1c2ccccc2c2c3c(c4c5ccccc5n(COCCOC(C)=O)c4c21)C(=O)N(Cc1ccccc1)C3=O | – | > 100 µM | – | > 100 µM | – | > 100 µM | – | > 100 µM | – | > 100 µM | – | – | – | > 100 µM | – | – | > 100 µM | > 100 µM | – | –
N#CCCN(CCC#N)c1ccc(/C=C(/NC(=O)c2cc([N+](=O)[O-])ccc2Cl)C(=O)N=[N+]=[N-])cc1 | – | > 100 µM | – | > 100 µM | – | > 100 µM | – | > 100 µM | – | > 100 µM | – | > 100 µM | – | > 100 µM | – | – | > 100 µM | > 100 µM | – | –
C/C(NNC(=O)c1ccccc1O)=C1\C=Nc2ccccc2S1 | – | 33.1 µM | – | > 100 µM | – | 9.61 µM | – | – | – | > 100 µM | – | > 100 µM | – | > 100 µM | – | – | 6.79 µM | > 100 µM | – | –
COc1cccc(/C=N/[N-]C(=O)c2ccncc2)c1[O-].[Mn+2].[OH3+] | 12.4 µM | 86.5 µM | 3.77 µM | > 100 µM | 3.9 µM | 23.2 µM | 4.14 µM | > 100 µM | 3.63 µM | > 100 µM | 3.51 µM | > 100 µM | 11.2 µM | > 100 µM | – | – | > 100 µM | 6.26 µM | 1.8 µM | 25.6 µM
CCCCCCCCCCC(=O)CCCCCCC(=O)O | – | > 100 µM | – | 33.7 µM | – | 35.5 µM | – | 28 µM | – | 26.7 µM | – | 40 µM | – | > 100 µM | – | – | > 100 µM | 73.8 µM | – | –
COc1ccc(C(c2ccccc2C(=O)O)c2ccc(OC)c3ccccc23)c2ccccc12 | – | 63.5 µM | – | 34.8 µM | – | 16.4 µM | – | 28.8 µM | – | – | – | 26.6 µM | – | – | – | – | – | > 100 µM | – | –
Clc1ccc(-c2cc(-c3ccccc3)nc(N3CCN(CCCNc4ccnc5cc(Cl)ccc45)CC3)n2)cc1 | – | – | 1.15 µM | 2.93 µM | 1.79 µM | 3.25 µM | 0.779 µM | 2.48 µM | 0.934 µM | 2.22 µM | 1.55 µM | 2.98 µM | 1.72 µM | 3.14 µM | 1.86 µM | 4.38 µM | 3.39 µM | – | – | 1.82 µM
CCCCCCCCSC(=O)NCCCC | – | – | – | > 100 µM | – | > 100 µM | – | 96.8 µM | – | – | – | > 100 µM | – | 88.7 µM | – | – | 45.6 µM | > 100 µM | – | –
Cc1cc(S(=O)(=O)/N=C(\N)Nc2cccc(O)c2)c(SCc2ccccc2)cc1Cl | 24 µM | 62.3 µM | 24.3 µM | 87.1 µM | 14.1 µM | 30.2 µM | 18.6 µM | 48 µM | 12.6 µM | 34 µM | 10.3 µM | 26.2 µM | 14.1 µM | 31 µM | 24.4 µM | 82.9 µM | 34.9 µM | – | – | 15.7 µM
CCCCC(C(=O)C(=O)Nc1ccc(C)cc1C)C(=O)C(C)C (stereo not drawn) | – | > 100 µM | – | > 100 µM | – | > 100 µM | – | > 100 µM | – | > 100 µM | – | > 100 µM | – | > 100 µM | – | – | > 100 µM | – | – | –
O/N=C1/CCCC/C1=C/C=C/c1ccccc1 | – | 60.7 µM | – | > 100 µM | – | 40.8 µM | – | 36.2 µM | – | 29.7 µM | – | 35.2 µM | – | 10.2 µM | – | – | 36.6 µM | 67 µM | – | –
C#CCN(N=O)C(=O)NC(CCCCNC(=O)OCc1ccccc1)C(=O)OCc1ccccc1 (stereo not drawn) | – | – | – | 38.9 µM | – | > 100 µM | – | 47.2 µM | – | > 100 µM | – | > 100 µM | – | 77.6 µM | – | – | > 100 µM | 41.8 µM | – | –
CC(=O)Nc1ccccc1-c1nc2ccccc2nc1-c1ccccc1 | – | – | – | > 100 µM | – | > 100 µM | – | > 100 µM | – | > 100 µM | – | > 100 µM | – | > 100 µM | – | – | > 100 µM | > 100 µM | – | –
O=C(NCCCCCCCCCCCCNC(=O)c1cnc2ccccc2n1)c1cnc2ccccc2n1 | – | > 100 µM | – | > 100 µM | – | > 100 µM | – | > 100 µM | – | > 100 µM | – | > 100 µM | – | > 100 µM | – | – | > 100 µM | > 100 µM | – | –
O=C1c2c(O)cccc2C(C(=O)CCCCCC(=O)C2c3cccc(O)c3C(=O)c3c(O)cccc32)c2cccc(O)c21 | 4.97 µM | 7.29 µM and 11.6 µM | 6.8 µM | 8.5 µM and 15.6 µM | 2.22 µM | 5.26 µM and 9.46 µM | 7.25 µM | 5.44 µM and 14.4 µM | 7.61 µM | 25 µM and 14.9 µM | 1.73 µM | 3.19 µM and 5.98 µM | 7.4 µM | 4.63 µM and 14.8 µM | – | – | 3.61 µM and 6.64 µM | 25 µM and 13.6 µM | 2.05 µM | 1.83 µM
CCc1cccc(C(C)C)c1NC(=O)CC1Sc2ccccc2NC1=O (stereo not drawn) | – | > 100 µM | – | > 100 µM | – | – | – | > 100 µM | – | > 100 µM | – | > 100 µM | – | > 100 µM | – | – | > 100 µM | > 100 µM | – | –
NC(Cc1ccccc1)C(=O)OCN1C(=O)C2C3C=CC(C2C1=O)C1C2C(=O)N(COC(=O)C(N)Cc4ccccc4)C(=O)C2C31 (stereo not drawn) | – | > 100 µM and 72.1 µM | – | 54.1 µM and 43.7 µM | – | 41.4 µM and 37.7 µM | – | 35.2 µM and 35.3 µM | – | 33.9 µM and 46.2 µM | – | 87 µM and 67.7 µM | – | 44.4 µM and 36 µM | – | – | – | 50.3 µM and > 100 µM | – | –
CC12Nc3ccccc3C1=C(c1ccccc1)CC1C(=O)OC(=O)C12 (stereo not drawn) | – | – | – | > 100 µM | – | > 100 µM | – | > 100 µM | – | > 100 µM | – | > 100 µM | – | > 100 µM | – | – | > 100 µM | > 100 µM | – | –
